Key:
human MMP-9 = target: T1, human MMP-9 (Homo sapiens, UniProt P14780); assay: Inhibitory activity of human MMP-9 (commercial kit, degradation of FITC-labeled bovine type IV collagen); format: biochemical; conditions: incubation 4 hours at 42° C.
T1 construct: purchased Yagai, Japan
Experimental: Inhibitory Activity of Human MMP-9
The inhibitory activity of test compounds against human MMP-9 were measured by using commercial kits (Yagai, Japan). Gelatinolytic activity was determined by monitoring the degradation of FITC-labeled bovine type IV collagen after incubation for 4 hours at 42° C. The amount of degraded collagen was estimated by measuring the fluorescence intensity at 495 nm (excitation) and 520 nm (emission).
Inhibitory activity of human MMP-9 as mentioned above.

T1 sequence (P14780 94-707): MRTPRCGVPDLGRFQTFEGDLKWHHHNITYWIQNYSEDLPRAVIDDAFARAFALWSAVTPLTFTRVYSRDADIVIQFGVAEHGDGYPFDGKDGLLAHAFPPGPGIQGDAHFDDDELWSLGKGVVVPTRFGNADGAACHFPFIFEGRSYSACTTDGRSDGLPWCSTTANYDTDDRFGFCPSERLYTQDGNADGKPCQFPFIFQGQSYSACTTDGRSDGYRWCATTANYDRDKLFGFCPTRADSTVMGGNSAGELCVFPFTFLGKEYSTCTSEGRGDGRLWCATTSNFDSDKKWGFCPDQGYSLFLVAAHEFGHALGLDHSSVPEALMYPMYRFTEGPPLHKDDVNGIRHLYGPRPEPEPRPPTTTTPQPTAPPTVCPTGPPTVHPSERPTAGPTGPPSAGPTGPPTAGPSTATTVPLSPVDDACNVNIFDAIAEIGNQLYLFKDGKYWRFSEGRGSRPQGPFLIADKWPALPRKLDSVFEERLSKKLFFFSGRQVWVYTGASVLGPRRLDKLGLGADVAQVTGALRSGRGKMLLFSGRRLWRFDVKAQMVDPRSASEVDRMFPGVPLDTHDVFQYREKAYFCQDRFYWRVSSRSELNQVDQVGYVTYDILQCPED

SMILES	melting point [°C]	IC50 (human MMP-9) [nM]
O=C(O)C[C@]1(c2ccc(C#Cc3ccc(Cl)cc3)s2)CCCCS1(=O)=O [Example 179, ((2S)-2-{5-[(4-Chlorophenyl)ethynyl]thiophen-2-yl)-1,1-dioxo-3,4,5,6-tetrahydro-2H-thiopyran-2-yl)acetic acid]	203 to 204	7.17
Cc1ccc2sc(-c3ccc([C@@]4(CC(=O)O)CCCCS4(=O)=O)s3)cc2c1 [Example 50, {(2S)-2-[5-(5-Methylbenzothiophen-2-yl)thiophen-2-yl]-1,1-dioxo-3,4,5,6-tetrahydro-2H-thiopyran-2-yl} acetic acid]	209 to 213	
O=C(O)C[C@]1(c2ccc(-c3cc4ccc(F)cc4s3)s2)CCCCS1(=O)=O [Example 97, {(2S)-1,1-Dioxo-2-[5-(6-fluorobenzothiophen-2-yl)thiophen-2-yl]-3,4,5,6-tetrahydro-2H-thiopyran-2-yl}acetic acid]		1.37
CC(C)Oc1ccc(-c2ccc([C@@]3(CC(=O)O)CCCCS3(=O)=O)s2)cc1 [Example 96, ((2S)-1,1-Dioxo-2-{5-[4-(1-methylethoxy)phenyl]-thiophen-2-yl}-3,4,5,6-tetrahydro-2H-thiopyran-2-yl) acetic acid]	184 to 185	
CCOc1ccc2cc(-c3ccc([C@@]4(CC(=O)O)CCCCS4(=O)=O)s3)ccc2c1 [Example 48, {(2S)-1,1-Dioxo-2-[5-(6-ethoxynaphthalen-2-yl)thiophen-2-yl]-3,4,5,6-tetrahydro-2H-thiopyran-2-yl} acetic acid]	219 to 222	
O=C(O)C[C@]1(c2ccc(-c3ccc(-c4cnco4)cc3)s2)CCCCS1(=O)=O [Example 3, [(2S)-2-[5-[4-(5-Oxazolyl)phenyl]thiophen-2-yl]-1,1-dioxo-3,4,5,6-tetrahydro-2H-thiopyran-2-yl]acetic acid]		16
CCCC#Cc1ccc([C@@]2(CC(=O)O)CCCCS2(=O)=O)s1 [Example 178, ((2S)-1,1-Dioxo-2-(5-[1-pentynyl]thiophen-2-yl}-3,4,5,6-tetrahydro-2H-thiopyran-2-yl)acetic acid]	171 to 172	
COc1ccc2cc(-c3ccc([C@@]4(CC(=O)O)CCCCS4(=O)=O)s3)sc2c1 [Example 52, {(2S)-2-[5-(6-Methoxybenzothiophen-2-yl)thiophen-2-yl]-1,1-dioxo-3,4,5,6-tetrahydro-2H-thiopyran-2-yl} acetic acid]	232 to 235	
O=C(O)C[C@]1(c2ccc(-c3ccc(-c4ccsc4)cc3)s2)CCCCS1(=O)=O [Example 35, ((2S)-1,1-Dioxo-2-{5-[4-(thiophen-3-yl)phenyl]-thiophen-2-yl}-3,4,5,6-tetrahydro-2H-thiopyran-2-yl)acetic acid]		2.77
O=C(O)C[C@]1(c2ccc(-c3ccc4cc(-c5cnco5)ccc4c3)s2)CCCCS1(=O)=O [Example 43, ((2S)-1,1-Dioxo-2-{5-[6-(oxazol-5-yl)naphthalen-2-yl]thiophen-2-yl}-3,4,5,6-tetrahydro-2H-thiopyran-2-yl)acetic acid]	260 to 265	
O=C(O)C[C@]1(c2ccc(-c3cc4cc(F)ccc4s3)s2)CCCCS1(=O)=O [Example 53, {(2S)-2-[5-(5-Fluorobenzothiophen-2-yl)thiophen-2-yl]-1,1-dioxo-3,4,5,6-tetrahydro-2H-thiopyran-2-yl} acetic acid]	219 to 221	
CNC(=O)c1ccc2cc(-c3ccc([C@@]4(CC(=O)O)CCCCS4(=O)=O)s3)ccc2c1 [Example 54, [(2S)-1,1-Dioxo-2-(5-{6-[methylcarbamoyl)naphthalen-2-yl}thiophen-2-yl)-3,4,5,6-tetrahydro-2H-thiopyran-2-yl]acetic acid]	230 to 232	
COc1ccc2sc(-c3ccc([C@@]4(CC(=O)O)CCCCS4(=O)=O)s3)cc2c1 [Example 51, {(2S)-2-[5-(5-Methoxybenzothiophen-2-yl)thiophen-2-yl]-1,1-dioxo-3,4,5,6-tetrahydro-2H-thiopyran-2-yl} acetic acid]	215 to 218	4.56
Cc1ccc(C#Cc2ccc([C@@]3(CC(=O)O)CCCCS3(=O)=O)s2)cc1 [Example 180, ((2S)-1,1-Dioxo-2-{5-[(4-methylphenyl)ethynyl]-thiophen-2-yl}-3,4,5,6-tetrahydro-2H-thiopyran-2-yl)acetic acid]	172 to 173	
